This assay can be described thus: LAWSON test: protection against chloroform-induced ventricular fibrillation. It counts as in vivo, mice. Particulars: Mus musculus, po, 0.5 h; female mice, intragastric, 30 minutes before chloroform; salts (hydrochloride); read-out: AD50 (dose protecting 50% of the animals against ventricular fibrillation). The protocol: The arrhythmia was induced, in this test, by inhalation of chloroform until breathing stopped.
For each dose of the substance to be studied, batches of 10 female mice, each of about 20 g, were used. These mice had been fasting for 18 hours before the test. A batch of 10 animals was used as control group.
A dose of the compound to be studied was first administered by intragastric route except to the controls which only received the solvent used with the compound in question. Thirty minutes later, the animals were placed under a dome-shaped receptacle containing a high concentration of chloroform obtained by means of a strongly impregnated pad.
The animals were removed when totally asphyxiated (about 2 minutes later), the thorax was rapidly opened and the ventricular rhythm observed. The dose of the compound under study which protected 50% of the animals against ventricular fibrillation was then determined.
This protective dose is expressed as AD50 in mg/kg in the following Table. […]
Another comparative test was performed under the same conditions with
several compounds included within the scope of U.S. Pat. No. 3,882,129 at
the single dose of 100 mg/kg by intragastric route.
The following results were obtained which are expressed in percentage of protection obtained against the arrhythmic effect at the studied dose: […]

Structures are written as SMILES. Counter-ions that a name gives are not always drawn.

With `COc1cc(C(C)=O)ccc1OCCCN1CC[C@@H](OC(=O)Nc2ccc(Br)cc2)[C@H]2CCCC[C@@H]21` (relative stereo) [1-[3-(4-Acetyl-2-methoxy-phenoxy)-propyl]-4-[4-(bromo-phenyl)-carbamoyloxy]-trans-decahydroquinoline hydrochloride (axial form)], the ED50 was > 100 mg/kg.
As to `COc1cc(C(C)=O)ccc1OCCCN1CC[C@@H](OC(N)=O)[C@H]2CCCC[C@@H]21` (relative stereo) [1-[3-(4-Acetyl-2-methoxy-phenoxy)-propyl]-4-carbamoyloxy-trans-decahydroquinoline hydrochloride (axial form)], the ED50 is > 100 mg/kg.
Take `NC(=O)O[C@@H]1CCN(CCOc2c(Cl)cccc2Cl)[C@H]2CCCC[C@H]12` (relative stereo) [4-Carbamoyloxy-1-[2-(2,6-dichloro-phenoxy)-ethyl]-trans-decahydroquinoline hydrochloride (axial form)]: the ED50 was 50 mg/kg.
With `NC(=O)O[C@H]1CCN(CCCOc2ccc(F)cc2)[C@H]2CCCC[C@H]12` (relative stereo) [4-Carbamoyloxy-1-[3-(4-fluoro-phenoxy)-propyl]-trans-decahydroquinoline hydrochloride (equatorial form)] the figure was 45 mg/kg; with `Cc1ccc(NC(=O)O[C@@H]2CCN(CCCOc3ccc(F)cc3)[C@H]3CCCC[C@H]23)cc1Cl` (relative stereo) [4-[3-(Chloro-4-methyl-phenyl)-carbamoyloxy]-1-[3-(4-fluoro-phenoxy)-propyl]-trans-decahydroquinoline hydrochloride (axial form)], > 100 mg/kg.
With `Cc1ccc(NC(=O)O[C@H]2CCN(CCCOc3ccc(F)cc3)[C@H]3CCCC[C@H]23)cc1Cl` (relative stereo) [4-[(3-Chloro-4-methyl-phenyl)-carbamoyloxy]-1-[3-(4-fluoro-phenoxy)-propyl]-trans-decahydroquinoline hydrochloride (equatorial form)], the ED50 came out at 30 mg/kg.
As for `O=C(Nc1ccc(Br)cc1)O[C@H]1CCN(CCCOc2ccc(F)cc2)[C@H]2CCCC[C@H]12` (relative stereo) [4-[(4-Bromo-phenyl)-carbamoyloxy]-1-[3-(4-fluoro-phenoxy)-propyl]-trans-decahydroquinoline hydrochloride (equatorial form)], the ED50 turned out to be 120 mg/kg.
With `O=C(Nc1ccc(Br)cc1)O[C@@H]1CCN(CCCOc2ccc(F)cc2)[C@H]2CCCC[C@H]12` (relative stereo) [4-[(4-Bromo-phenyl)-carbamoyloxy]-[1-3-(4-fluoro-phenoxy)-propyl]-trans-decahydroquinoline hydrochloride (axial form)], the ED50 was 150 mg/kg.
Turning to `CCNC(=O)O[C@@H]1CCN(CCCOc2ccc(F)cc2)[C@H]2CCCC[C@H]12` (relative stereo) [ethyl, 3, O, 4-fluoro-phenyl, axial, 4-(N-Ethylcarbamoyloxy)-1-[3-(4-fluoro-phenoxy)-propyl]-trans-decahydroquinoline hydrochloride (axial form)], the ED50 was determined as 50 mg/kg.
Regarding `NC(=O)O[C@@H]1CCN(CCOc2cccc3ccccc23)[C@H]2CCCC[C@H]12` (relative stereo) [hydrogen, 2, O, 1-naphthyl, axial, 4-Carbamoyloxy-1-[2-(1-naphthyloxy)-ethyl]-trans-decahydroquinoline hydrochloride (axial form)], the ED50 is 75 mg/kg.
In the case of `COc1ccccc1OCCN1CC[C@@H](OC(N)=O)[C@H]2CCCC[C@@H]21` (relative stereo) [hydrogen, 2, O, 2-methoxy-phenyl, axial, 4-Carbamoyloxy-1-[2-(2-methoxy-phenoxy)-ethyl]-trans-decahydroquinoline hydrochloride (axial form)] it was 75 mg/kg.
`NC(=O)O[C@@H]1CCN(CCOc2ccc3ccccc3c2)[C@H]2CCCC[C@H]12` (relative stereo) [hydrogen, 2, O, 2-naphthyl, axial, 4-Carbamoyloxy-1-[2-(2-naphthyloxy)-ethyl]-trans-decahydroquinoline hydrochloride (axial form)]: the ED50 was found to be 50 mg/kg.

Values taken from patent US4332805A, “Decahydroquinolinol derivatives and methods of treating cardiac arrythmias or inducing local anaesthesia with them” (priority 1979, dated 1982).
